Source: ChEMBL document CHEMBL1201862, “PubChem BioAssay data set” (2004)
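How tested: cells in 96-well plates exposed to compound for 48 hours at five concentrations. GI50 is the concentration that inhibits growth by half.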 Activity calls are given as the source filed them. Rule as the data show it: active = GI50 up to about 1.1 µM and inactive = higher.

Assays:
Assay in all cases: inhibition of tumour cell growth, NCI panel, 48 h
[1] = tested on: CCRF-CEM
[2] = tested on: DLD-1
[3] = tested on: HL-60
[4] = tested on: HOP-18
[5] = tested on: KM-20L2
[6] = tested on: LXFL 529
[7] = tested on: RPMI-8226
[8] = tested on: RXF 631
[9] = tested on: SK-MEL-28
[10] = tested on: 786-0
[11] = tested on: A498
[12] = tested on: A549
[13] = tested on: ACHN
[14] = tested on: CAKI-1
[15] = tested on: COLO 205
[16] = tested on: DMS-114
[17] = tested on: DMS-273
[18] = tested on: EKVX
[19] = tested on: HCC 2998
[20] = tested on: HCT-116
[21] = tested on: HCT-15
[22] = tested on: HOP-62
[23] = tested on: HT-29
[24] = tested on: IGROV-1
[25] = tested on: K562
[26] = tested on: KM12
[27] = tested on: LOX IMVI
[28] = tested on: M14
[29] = tested on: M19-MEL
[30] = tested on: MOLT-4
[31] = tested on: Malme-3M
[32] = tested on: NCI-H226
[33] = tested on: NCI-H23
[34] = tested on: NCI-H460
[35] = tested on: NCI-H522
[36] = tested on: OVCAR-3
[37] = tested on: OVCAR-4
[38] = tested on: OVCAR-5
[39] = tested on: OVCAR-8
[40] = tested on: RXF 393
[41] = tested on: SF-268
[42] = tested on: SF-295
[43] = tested on: SF-539
[44] = tested on: SK-MEL-2
[45] = tested on: SK-OV-3
[46] = tested on: SN12C
[47] = tested on: SNB-19
[48] = tested on: SNB-78
[49] = tested on: SR
[50] = tested on: SW-620
[51] = tested on: TK-10
[52] = tested on: U-251
[53] = tested on: UACC-257
[54] = tested on: UACC-62
[55] = tested on: UO-31
[56] = tested on: HOP-92
[57] = tested on: SK-MEL-5
[58] = tested on: SNB-75
[59] = tested on: XF498

## CC[C@@]1(O)C[C@H](OC2CC(N(C)C)C(OC3CC(O)C(OC4CCC(=O)C(C)O4)C(C)O3)C(C)O2)c2c(cc3c(c2O)C(=O)c2c(O)cccc2C3=O)[C@H]1C(=O)OC (some centres undefined)
[1]
  GI50: 0.0229 µM (active)
[2]
  GI50: 0.0238 µM (active)
[3]
  GI50: 0.0231 µM (active)
[4]
  GI50: 0.0458 µM (active)
[5]
  GI50: 0.0247 µM (active)
[6]
  GI50: 0.00776 µM (active)
[7]
  GI50: 0.0243 µM (active)
[8]
  GI50: 0.00711 µM (active)
[9]
  GI50: 0.0443 µM (active)

## Cc1cc(Br)cc(C)c1NC(=O)C(=O)C(C(=O)c1ccc(Cl)c(Cl)c1)C1OC(=O)c2ccccc21 (centres undefined)
[10]
  GI50: 86.1 µM (inactive)
[11]
  GI50: 26.3 µM (inactive)
[12]
  GI50: 74.3 µM (inactive)
[13]
  GI50: 28.5 µM (inactive)
[14]
  GI50: 34.8 µM (inactive)
[1]
  GI50: 35.2 µM (inactive)
[15]
  GI50: 47.5 µM (inactive)
[2]
  GI50: 12.4 µM (inactive)
[16]
  GI50: 24.3 µM (inactive)
[17]
  GI50: 63.2 µM (inactive)
[18]
  GI50: 4.19 µM (inactive)
[19]
  GI50: > 100 µM (inactive)
[20]
  GI50: 48.4 µM (inactive)
[21]
  GI50: 50.2 µM
[3]
  GI50: 24.5 µM (inactive)
[22]
  GI50: 43.6 µM (inactive)
[23]
  GI50: 29.9 µM (inactive)
[24]
  GI50: 91.2 µM (inactive)
[25]
  GI50: 28.2 µM (inactive)
[5]
  GI50: 34.6 µM (inactive)
[26]
  GI50: 36.8 µM (inactive)
[27]
  GI50: > 100 µM (inactive)
[6]
  GI50: 59.3 µM (inactive)
[28]
  GI50: > 100 µM (inactive)
[29]
  GI50: 75.2 µM (inactive)
[30]
  GI50: 12.6 µM (inactive)
[31]
  GI50: > 100 µM (inactive)
[32]
  GI50: 72.6 µM (inactive)
[33]
  GI50: 95.7 µM (inactive)
[34]
  GI50: > 100 µM (inactive)
[35]
  GI50: 36.5 µM (inactive)
[36]
  GI50: 37.1 µM (inactive)
[37]
  GI50: > 100 µM (inactive)
[38]
  GI50: 21.7 µM (inactive)
[39]
  GI50: > 100 µM (inactive)
[7]
  GI50: 42.2 µM (inactive)
[40]
  GI50: > 100 µM (inactive)
[8]
  GI50: 29.6 µM (inactive)
[41]
  GI50: 39.8 µM (inactive)
[42]
  GI50: 90.6 µM (inactive)
[43]
  GI50: 25.2 µM (inactive)
[44]
  GI50: > 100 µM (inactive)
[45]
  GI50: 49.5 µM (inactive)
[46]
  GI50: 79.3 µM (inactive)
[47]
  GI50: 82 µM (inactive)
[48]
  GI50: 53.3 µM (inactive)
[49]
  GI50: 7.71 µM (inactive)
[50]
  GI50: > 100 µM (inactive)
[51]
  GI50: 70.8 µM (inactive)
[52]
  GI50: 44.6 µM (inactive)
[53]
  GI50: 36.7 µM (inactive)
[54]
  GI50: 59.8 µM (inactive)
[55]
  GI50: 26.2 µM (inactive)

## CC(=O)CCCCCCCCCCCC[C@@H]1CC[C@H](C)[C@H](O)N1
[10]
  GI50: > 100 µM (inactive)
[12]
  GI50: > 100 µM (inactive)
[13]
  GI50: > 100 µM (inactive)
[14]
  GI50: > 100 µM (inactive)
[1]
  GI50: > 100 µM (inactive)
[15]
  GI50: > 100 µM (inactive)
[2]
  GI50: > 100 µM (inactive)
[16]
  GI50: > 100 µM (inactive)
[17]
  GI50: > 100 µM (inactive)
[18]
  GI50: > 100 µM (inactive)
[19]
  GI50: > 100 µM (inactive)
[20]
  GI50: > 100 µM (inactive)
[21]
  GI50: > 100 µM
[3]
  GI50: 43.4 µM (inactive)
[4]
  GI50: > 100 µM (inactive)
[22]
  GI50: > 100 µM (inactive)
[56]
  GI50: > 100 µM (inactive)
[23]
  GI50: 38.3 µM (inactive)
[24]
  GI50: > 100 µM (inactive)
[25]
  GI50: > 100 µM (inactive)
[5]
  GI50: 65.2 µM (inactive)
[26]
  GI50: > 100 µM (inactive)
[27]
  GI50: 40.3 µM (inactive)
[6]
  GI50: > 100 µM (inactive)
[28]
  GI50: 53.5 µM (inactive)
[29]
  GI50: 95.5 µM (inactive)
[30]
  GI50: > 100 µM (inactive)
[31]
  GI50: > 100 µM (inactive)
[32]
  GI50: > 100 µM (inactive)
[33]
  GI50: > 100 µM (inactive)
[34]
  GI50: > 100 µM (inactive)
[35]
  GI50: > 100 µM (inactive)
[36]
  GI50: > 100 µM (inactive)
[38]
  GI50: > 100 µM (inactive)
[39]
  GI50: > 100 µM (inactive)
[7]
  GI50: > 100 µM (inactive)
[40]
  GI50: > 100 µM (inactive)
[41]
  GI50: > 100 µM (inactive)
[42]
  GI50: > 100 µM (inactive)
[9]
  GI50: > 100 µM (inactive)
[44]
  GI50: > 100 µM (inactive)
[57]
  GI50: 46.9 µM (inactive)
[45]
  GI50: > 100 µM (inactive)
[47]
  GI50: > 100 µM (inactive)
[58]
  GI50: 89.1 µM (inactive)
[48]
  GI50: > 100 µM (inactive)
[49]
  GI50: 90.4 µM (inactive)
[50]
  GI50: > 100 µM (inactive)
[51]
  GI50: > 100 µM (inactive)
[52]
  GI50: > 100 µM (inactive)
[53]
  GI50: > 100 µM (inactive)
[54]
  GI50: 97.7 µM (inactive)
[55]
  GI50: 67.1 µM (inactive)
[59]
  GI50: > 100 µM (inactive)

## C=CCNC(=S)OCCCCCCCCCC
[10]
  GI50: 18.2 µM (inactive)
[11]
  GI50: 18.5 µM (inactive)
[12]
  GI50: 25.3 µM (inactive)
[13]
  GI50: 18.5 µM (inactive)
[14]
  GI50: 19.1 µM (inactive)
[1]
  GI50: 15.7 µM (inactive)
[2]
  GI50: 16.4 µM (inactive)
[16]
  GI50: 17 µM (inactive)
[17]
  GI50: 19.9 µM (inactive)
[18]
  GI50: 23.8 µM (inactive)
[19]
  GI50: 17.7 µM (inactive)
[20]
  GI50: 16.9 µM (inactive)
[21]
  GI50: 15.8 µM
[3]
  GI50: 16.4 µM (inactive)
[4]
  GI50: 22.3 µM (inactive)
[22]
  GI50: 21.7 µM (inactive)
[23]
  GI50: 18.6 µM (inactive)
[24]
  GI50: 20 µM (inactive)
[25]
  GI50: 13.8 µM (inactive)
[5]
  GI50: 18.6 µM (inactive)
[26]
  GI50: 12.4 µM (inactive)
[27]
  GI50: 13.6 µM (inactive)
[6]
  GI50: 14.9 µM (inactive)
[28]
  GI50: 18.1 µM (inactive)
[29]
  GI50: 17.6 µM (inactive)
[30]
  GI50: 13.9 µM (inactive)
[31]
  GI50: 19.6 µM (inactive)
[33]
  GI50: 19.8 µM (inactive)
[34]
  GI50: 17.6 µM (inactive)
[37]
  GI50: 16.5 µM (inactive)
[38]
  GI50: 10.2 µM (inactive)
[39]
  GI50: 17.1 µM (inactive)
[7]
  GI50: 18.8 µM (inactive)
[40]
  GI50: 15.5 µM (inactive)
[41]
  GI50: 19.5 µM (inactive)
[42]
  GI50: 19.1 µM (inactive)
[43]
  GI50: 19 µM (inactive)
[9]
  GI50: 23.6 µM (inactive)
[44]
  GI50: 12.3 µM (inactive)
[57]
  GI50: 16.7 µM (inactive)
[45]
  GI50: 24.3 µM (inactive)
[46]
  GI50: 17.7 µM (inactive)
[47]
  GI50: 30.8 µM (inactive)
[58]
  GI50: 23.6 µM (inactive)
[48]
  GI50: 19.5 µM (inactive)
[49]
  GI50: 20.9 µM (inactive)
[50]
  GI50: 18.7 µM (inactive)
[51]
  GI50: 11.7 µM (inactive)
[52]
  GI50: 16.7 µM (inactive)
[53]
  GI50: 18.8 µM (inactive)
[54]
  GI50: 16.5 µM (inactive)
[55]
  GI50: 12.3 µM (inactive)
[59]
  GI50: 16 µM (inactive)
